# Experimental data published in ChEMBL document CHEMBL5236668, “Synthesis and biological evaluation of novel SN38-glucose conjugate for colorectal cancer treatment” (Bioorg Med Chem Lett, 2023).
# Activity calls are given as the source filed them. The rule behind the calls is not given here.
# Columns and labels:
# [1] = tested on: SW480; experiment: Induction of apoptosis in human SW480 cells assessed as early apoptotic cells at 25 uM by Annexin V-FITC staining based flow cytometry (reference value: 2.53 %); assay type: functional
# [2] = tested on: HCT-116; experiment: Induction of apoptosis in human HCT-116 cells assessed as early apoptotic cells at 25 uM by Annexin V-FITC staining based flow cytometry (reference value: 1.46 %); assay type: functional
# [3] = tested on: HCT-116; experiment: Induction of apoptosis in human HCT-116 cells assessed as necrotic cells at 25 uM by Annexin V-FITC staining based flow cytometry (reference value: 0.73 %); assay type: functional
# [4] = tested on: HCT-116; experiment: Inhibition of cell invasion in human HCT-116 cells by Boyden chamber invasion assay; assay type: functional, cell-based; settings: dose 5-50 µM
# [5] = tested on: SW480; experiment: Induction of apoptosis in human SW480 cells assessed as late apoptotic cells at 25 uM by Annexin V-FITC staining based flow cytometry (reference value: 5.12 %); assay type: functional
# [6] = Selectivity index, ratio of IC50 for cytotoxicity against HEK293T cells to IC50 for anticancer activity against human HCT-116 cells; assay type: toxicity, cell-based; settings: HEK293T cells and HCT-116 cells, read-out: Ratio IC50
# [7] = Toxicity in nude mouse xenografted with human SW480 cells assessed as effect on blood urea nitrogen level at 0.016 mmol/Kg, iv administered at 3 days intervals for 21 days; assay type: organism-based; settings: in vivo, 504 h, time 21 day
# [8] = Toxicity in nude mouse xenografted with human SW480 cells assessed as effect on body weight at 0.008 to 0.016 mmol/Kg, iv administered at 3 days intervals for 21 days; assay type: organism-based; settings: in vivo, 504 h, dose 0.008-0.016 mmol/Kg, time 21 day
# [9] = tested on: HCT-116; experiment: Anticancer activity against human HCT-116 cells assessed as inhibition of cell growth by MTT assay; assay type: functional, cell-based
# [10] = tested on: SW480; experiment: Induction of apoptosis in human SW480 cells assessed as appearance of paired apoptotic vesicles around the nucleus by Hoechst 33258 staining based analysis; assay type: functional, cell-based
# [11] = Toxicity in nude mouse xenografted with human SW480 cells assessed as effect on alanine transaminase level at 0.016 mmol/Kg, iv administered at 3 days intervals for 21 days; assay type: organism-based; settings: in vivo, 504 h, time 21 day
# [12] = tested on: SW480; experiment: Antitumor activity against human SW480 cells xenografted in mouse assessed as reduction in tumor weight at 0.008 to 0.016 mmol/Kg, iv administered at 3 days intervals for 21 days; assay type: functional, organism-based; settings: dose 0.008-0.016 mmol/Kg, time 21.0 day
# [13] = Toxicity in nude mouse xenografted with human SW480 cells assessed as effect on PDW at 0.016 mmol/Kg, iv administered at 3 days intervals for 21 days by routine blood test; assay type: organism-based; settings: in vivo, 504 h, time 21 day
# [14] = tested on: HCT-116; experiment: Induction of apoptosis in human HCT-116 cells assessed as appearance of wrinkled and round cells by Hoechst 33258 staining based analysis; assay type: functional, cell-based
# [15] = Toxicity in nude mouse xenografted with human SW480 cells assessed as effect on MCH level at 0.016 mmol/Kg, iv administered at 3 days intervals for 21 days by routine blood test; assay type: organism-based; settings: in vivo, 504 h, time 21 day
# [16] = tested on: SW480; experiment: Induction of apoptosis in human SW480 cells assessed as appearance of wrinkled and round cells by Hoechst 33258 staining based analysis; assay type: functional, cell-based
# [17] = Toxicity in nude mouse xenografted with human SW480 cells assessed as effect on total protein level at 0.016 mmol/Kg, iv administered at 3 days intervals for 21 days; assay type: organism-based; settings: in vivo, 504 h, time 21 day
# [18] = tested on: SW480; experiment: Antitumor activity against human SW480 cells xenografted in iv dosed mouse assessed as reduction in tumor volume administered at 3 days intervals for 21 days; assay type: functional, organism-based; settings: dose 0.008-0.016 mmol/Kg, time 21.0 day
# [19] = tested on: SW480; experiment: Antitumor activity against human SW480 cells xenografted in mouse assessed as reduction in tumor growth at 0.008 to 0.016 mmol/Kg, iv administered at 3 days intervals for 21 days; assay type: functional, organism-based; settings: dose 0.008-0.016 mmol/Kg, time 21.0 day
# [20] = Solubility of the compound in water; assay type: physicochemical
# [21] = Toxicity in nude mouse xenografted with human SW480 cells assessed as effect on MCV level at 0.016 mmol/Kg, iv administered at 3 days intervals for 21 days by routine blood test; assay type: organism-based; settings: in vivo, 504 h, time 21 day
# [22] = Toxicity in nude mouse xenografted with human SW480 cells assessed as effect on cholesterol level at 0.016 mmol/Kg, iv administered at 3 days intervals for 21 days; assay type: organism-based; settings: in vivo, 504 h, time 21 day
# [23] = Toxicity in nude mouse xenografted with human SW480 cells assessed as effect on creatinine level at 0.016 mmol/Kg, iv administered at 3 days intervals for 21 days; assay type: organism-based; settings: in vivo, 504 h, time 21 day
# [24] = Toxicity in nude mouse xenografted with human SW480 cells assessed as effect on WBC level at 0.016 mmol/Kg, iv administered at 3 days intervals for 21 days by routine blood test; assay type: organism-based; settings: in vivo, 504 h, time 21 day
# [25] = tested on: HCT-116; experiment: Induction of apoptosis in human HCT-116 cells assessed as viable cells at 25 uM by Annexin V-FITC staining based flow cytometry (reference value: 94.3%); assay type: functional; settings: read-out: Activity
# [26] = tested on: SW480; experiment: Inhibition of cell invasion in human SW480 cells by Boyden chamber invasion assay; assay type: functional, cell-based; settings: dose 5-50 µM
# [27] = tested on: SW480; experiment: Induction of apoptosis in human SW480 cells assessed as blue chromatin condensation by Hoechst 33258 staining based analysis; assay type: functional, cell-based
# [28] = Toxicity in nude mouse xenografted with human SW480 cells assessed as effect on albumin level at 0.016 mmol/Kg, iv administered at 3 days intervals for 21 days; assay type: organism-based; settings: in vivo, 504 h, time 21 day
# [29] = Toxicity in nude mouse xenografted with human SW480 cells assessed as effect on hemoglobin level at 0.016 mmol/Kg, iv administered at 3 days intervals for 21 days by routine blood test; assay type: organism-based; settings: in vivo, 504 h, time 21 day
# [30] = tested on: HCT-116; experiment: Induction of apoptosis in human HCT-116 cells assessed as appearance of paired apoptotic vesicles around the nucleus by Hoechst 33258 staining based analysis; assay type: functional, cell-based
# [31] = Toxicity in nude mouse xenografted with human SW480 cells assessed as effect on RBC level at 0.016 mmol/Kg, iv administered at 3 days intervals for 21 days by routine blood test; assay type: organism-based, Erythrocyte; settings: in vivo, 504 h, time 21 day
# [32] = Cytotoxicity against human L02 cells assessed as inhibition of cell growth by MTT assay; assay type: toxicity, cell-based
# [33] = Selectivity index, ratio of IC50 for cytotoxicity against HEK293T cells to IC50 for anticancer activity against human SW480 cells; assay type: toxicity, cell-based; settings: HEK293T cells and SW480 cells, read-out: Ratio IC50
# [34] = Selectivity index, ratio of IC50 for cytotoxicity against human L02 cells to IC50 for anticancer activity against human SW480 cells; assay type: toxicity, cell-based; settings: L02 cells and SW480 cells, read-out: Ratio IC50
# [35] = Selectivity index, ratio of IC50 for cytotoxicity against human L02 cells to IC50 for anticancer activity against human HCT-116 cells; assay type: toxicity, cell-based; settings: L02 cells and HCT-116 cells, read-out: Ratio IC50
# [36] = tested on: SW480; experiment: Induction of apoptosis in human SW480 cells assessed as necrotic cells at 25 uM by Annexin V-FITC staining based flow cytometry (reference value: 3.05 %); assay type: functional
# [37] = tested on: HCT-116; experiment: Antimigratory activity against human HCT-116 cells assessed as inhibition of cell migration by wound healing assay relative to control; assay type: functional; design: scale not given: the % may be the effect or the level left
# [38] = tested on: HCT-116; experiment: Induction of apoptosis in human HCT-116 cells assessed as late apoptotic cells at 25 uM by Annexin V-FITC staining based flow cytometry (reference value: 3.51 %); assay type: functional
# [39] = tested on: SW480; experiment: Induction of apoptosis in human SW480 cells assessed as viable cells at 25 uM by Annexin V-FITC staining based flow cytometry (reference value: 89.3 %); assay type: functional; settings: read-out: Activity
# [40] = tested on: SW480; experiment: Anticancer activity against human SW480 cells assessed as inhibition of cell growth by MTT assay; assay type: functional, cell-based
# [41] = tested on: HCT-116; experiment: Induction of apoptosis in human HCT-116 cells assessed as blue chromatin condensation by Hoechst 33258 staining based analysis; assay type: functional, cell-based
# [42] = Cytotoxicity against HEK293T cells assessed as inhibition of cell growth by MTT assay; assay type: toxicity, cell-based, HEK-293T; settings: human
# [43] = tested on: SW480; experiment: Antimigratory activity against human SW480 cells assessed as inhibition of cell migration by wound healing assay relative to control; assay type: functional; design: scale not given: the % may be the effect or the level left
# [44] = Toxicity in iv dosed nude mouse xenografted with human SW480 cells assessed as effect on body weight administered at 3 days intervals for 21 days; assay type: organism-based; settings: in vivo, 504 h, time 21 day
# [45] = Solubility of the compound in 0.9% NaCl solution; assay type: physicochemical
# [46] = Solubility of the compound in Tween 80 solution; assay type: physicochemical
smiles,measurement,setting,value
CCc1c2c(nc3ccc(OC(=O)NCCOCc4cn(CCO[C@H]5O[C@@H](CO)[C@H](O)[C@@H](O)[C@@H]5O)nn4)cc13)-c1cc3c(c(=O)n1C2)COC(=O)[C@]3(O)CC,Activity,[1],6%
same,Activity,[2],3.67%
same,Activity,[3],2.2%
same,inhibition,[4],Dose-Dependent Effect
same,Activity,[5],38.7%
same,selectivity ratio,[6],73.5
same,Activity,[7],Non-Toxic
same,Activity,[8],Non-Toxic
same,IC50,[9],0.27 µM
same,Activity,[10],Active
same,Activity,[11],Non-Toxic
same,Activity,[12],Active
same,Activity,[13],Non-Toxic
same,Activity,[14],Active
same,Activity,[15],Non-Toxic
same,Activity,[16],Active
same,Activity,[17],Non-Toxic
same,Activity,[18],Dose-Dependent Effect
same,Activity,[19],Active
same,solubility,[20],2530 µg/mL
same,Activity,[21],Non-Toxic
same,Activity,[22],Non-Toxic
same,Activity,[23],Non-Toxic
same,Activity,[24],Non-Toxic
same,viability at 25 µM,[25],80.1%
same,inhibition,[26],Dose-Dependent Effect
same,Activity,[27],Active
same,Activity,[28],Non-Toxic
same,Activity,[29],Non-Toxic
same,Activity,[30],Active
same,Activity,[31],Non-Toxic
same,IC50,[32],1.54 µM
same,selectivity ratio,[33],124
same,selectivity ratio,[34],9.62
same,selectivity ratio,[35],5.7
same,Activity,[36],5.33%
same,Activity,[37],20.1%
same,Activity,[38],14.1%
same,viability at 25 µM,[39],50%
same,IC50,[40],0.16 µM
same,Activity,[41],Active
same,IC50,[42],19.8 µM
same,Activity,[43],26.7%
CCc1c2c(nc3ccc(OC(=O)N4CCC(N5CCCCC5)CC4)cc13)-c1cc3c(c(=O)n1C2)COC(=O)[C@]3(O)CC [IRINOTECAN],Activity,[2],1.51%
same,Activity,[3],0.256%
same,Activity,[44],Non-Toxic
same,Activity,[5],10.7%
same,IC50,[9],14.2 µM
same,solubility,[45],1200 µg/mL
same,solubility,[20],5590 µg/mL
same,viability at 25 µM,[25],92.5%
same,IC50,[32],22.2 µM
same,Activity,[36],0.871%
same,Activity,[38],6.15%
same,viability at 25 µM,[39],85%
same,IC50,[40],11.2 µM
same,IC50,[42],19.8 µM
same,Activity,[43],74.5%
CCc1c2c(nc3ccc(O)cc13)-c1cc3c(c(=O)n1C2)COC(=O)[C@]3(O)CC [7-ETHYL-10-HYDROXYCAMPTOTHECIN],solubility,[45],17.6 µg/mL
same,solubility,[20],7.74 µg/mL
same,solubility,[46],77.4 µg/mL
